We go through 14 molecules from the OPERA property sets (Mansouri et al. 2018).

Broadly, the boiling point is the temperature of boiling at a given pressure. Usually melting point stands for the temperature, or range, at which the solid turns liquid.

Settings in the first series: not given
Molecule `FC(F)(F)C(F)(Cl)C(F)(Cl)C(F)(F)F` (configuration not stated) yielded a boiling point of 63 °C and a melting point of -68 °C.

On to `COc1c(F)c(F)cc(F)c1F`, for which the boiling point is 138 °C.

Consider `CCSCc1ccccc1OC(=O)NC`, for which the log10 vapour pressure (mmHg) is -5.15 and the melting point stood at 33.4 °C.

As to `CCc1c(CC)c(CC)c(CC)c(CC)c1CC`, the boiling point amounted to 298 °C and the melting point was found to be 129 °C.

As to `CC(=O)O`, the boiling point stood at 118 °C, the log10 Henry constant (atm·m³/mol) was -7, the log10 vapour pressure (mmHg) was 1.2 and the melting point was found to be 16.6 °C. Further, the ready biodegradability result is “readily biodegradable”.

For the molecule `CC12CCC(C(Br)C1=O)C2(C)C` (configuration not stated), the boiling point worked out at 274 °C and the melting point was determined as 76.5 °C.

`C[N+](C)(C)CCOC(=O)CCC(=O)OCC[N+](C)(C)C.[Cl-].[Cl-]`: the melting point was 190 °C.

In turn, `O=[N+]([O-])c1ccc(Sc2ccccc2)cc1` came in with a melting point of 56 °C.

Molecule `CC(C)OC(C)(C)C` returned a boiling point of 87.6 °C and a melting point of -88 °C.

As for `O[Si](c1ccccc1)(c1ccccc1)c1ccccc1`, the melting point stood at 155 °C.

The molecule `Cc1ccc2ccc3ccccc3c2c1` yielded a boiling point of 350 °C and a melting point of 65 °C.

`Cc1ccc(Cl)cc1O`: the ready biodegradability entry was “not readily biodegradable”.

For the molecule `CC1CCCC1(C)C` (configuration not stated), the boiling point stood at 114 °C and the melting point was -21.6 °C.

For the molecule `CC(C)[C@]12CC(=O)[C@H](C)[C@H]1C2`, the boiling point came out at 203 °C and the log10 vapour pressure (mmHg) was -0.385.

The same series, now with this note: fish.
For the molecule `O[Si](c1ccccc1)(c1ccccc1)c1ccccc1`, the log10 biotransformation half-life (days) was found to be 0.07.
